Reference: article PMC7475896, “Ruthenium(II) and Iridium(III) Complexes as Tested Materials for New Anticancer Agents” (Materials, 2020)
pIC50: −log10 of the molar value. Values after ≈ are worked out from the molar mass of the structure shown. “Also recorded” adds a separate entry of the source.

Key:
[1] = test system: myelomonocytic leukaemia (MV-4-11) cell line; experiment: in vitro cytotoxicity, MTT assay, MV-4-11; format: cell-based
Method: (§1) The cytotoxicity of the investigated complexes 1–3 was determined by microculture with sulforhodamine B SRB (all adherent cells) and MTT ([3-(4,5-dimethyl(thiazol-2-yl) -2,5-diphenyltetrazoliumbromide)]) (for cells in suspension (leukemia cells)) assays with the following three tumor cell lines: colorectal adenoma (LoVo), myelomonocytic leukemia (MV-4-11), and breast adenocarcinoma (MCF-7), as well as a healthy mouse fibroblast (BALB/3T3) cell line. The cytotoxicity of the compounds was measured using the methods described previously. […] The results for cisplatin, used as a test control, were presented in the form of IC50 value (this is the concentration of the compound causing the inhibition of cell proliferation of 50% of the cell population). The results were calculated from 2 to 3 independent experiments.

[2] = in vitro cytotoxicity, SRB assay, normal BALB/3T3; format: cell-based, mouse; details: mouse, BALB/3T3 normal mouse fibroblast cells; compound concentration 10 μg/mL; normal cell line
Method: as §1

CT-DNA = experiment: DNA melting test by 3D CD; format: binding; details: 100 μM CT-DNA, Tris-HCl/NaCl pH 7.2; free CT-DNA Tm 55.2 ± 0.7 °C
Method: The melting profiles of DNA/complex mixtures were recorded on a Jasco J-815 spectropolarimeter (Kettenbrückengasse, Austria) equipped with a CDF-426S/15 Peltier temperature controller. CD melting experiments were performed using 100 μM CT DNA concentration, in the absence and presence of 100 equivalents of complexes (in Tris-HCl/NaCl buffer, pH 7.2). CD melting were performed at 5 °C/min heating rate in the 35–95 °C temperature range. Each spectrum was recorded in the 220–300 nm wavelength range, averaged over three scans and subtracting the buffer baseline. After each temperature change, the system was left to equilibrate for 3 min. From 3D data, we selected the proper wavelength (256 nm) and obtained a classic 2D melting profile (fraction folded vs. temperature). The melting temperatures (Tm) were mathematically calculated by using the curve fitting function in Origin 2020 software (OriginLab, Northampton, MA, USA). Tm values represent the melting temperature of the DNA with and without complexes.
To solve the problem of the mode of iridium-DNA binding, covalent and non-covalent, DNA melting experiments were conducted. […] The Tm of the tested solution was determined as the transition midpoint of the melting curve by monitoring the maximum of the ellipticity and absorbance as a function of temperature ranging from 35 to 95 °C. […]

[3] = target: T1, human serum albumin (HSA) (Homo sapiens, UniProt P02768); experiment: HSA conformation by CD spectroscopy; format: binding; details: free HSA 56%
T1 construct: purchased Sigma-Aldrich Chemie GmbH (Steinheim, Germany)
Method: (§2) Determination of log P values, and studies on the interactions of ruthenium(II) (1), iridium(III) complexes (2, 3) with CT-DNA, HSA and GSH, were performed according to the previous procedure published in the paper.
(§3) Because plasma albumins can interfere with anticancer compounds and change their biological activity, especially their cytotoxicity effectiveness, it is important to obtain insight into interactions of the analyzed complexes with HSA as a plasma protein. The UV-Vis spectra of HSA with increasing amounts of complexes show increasing of HSA absorbance without any shift (Figure 13 a–c). […] To detect any changes of the microenvironment or the conformations of HSA caused by the analyzed complexes, CD spectroscopy was used (Figure 13e,f). […] The noticeable, spectral changes indicate a partial unfolding of the protein structure, leading to the loss of its stability.
(§4) Figure 13 Changes in UV-Vis absorption spectra of HSA (2 × 10^−5 M) in Tris-HCl/NaCl buffer upon addition of 1 (a), 2 (b) and 3 (c) in different molar ratio and CD spectra of HSA incubated with 1 (d), 2 (e) and 3 (f) in different molar ratio.

[4] = catalytic oxidation of NADH to NAD+ (UV-Vis); format: biochemical; details: complex 1 µM, NADH 100 µM, 50% MeOH/50% H2O, 37 °C, 9 h
Method: The reaction of analyzed complexes (1 µM) with NADH (100 µM) in 50% MeOH/50% H2O (V:V) was examined by UV-Vis spectroscopy at 37 °C after various time intervals (0.5–9 h). The turnover number (TON) was calculated from the difference in NADH concentration after 9 h divided by the concentration of analyzed iridium complexes. The concentration of NADH was obtained using the extinction coefficient ε339 = 6220 M^−1cm^−1.
Figure 12 UV-Vis spectra for the catalytic oxidation of NADH (100 μM) to NAD^+ in the presence of complexes (1 μM) over a 9 h period in 50% MeOH/50% H2O (V:V) (inset: wavelength absorbance changes from 315-360 nm).

[5] = lipophilicity (log P) determination; format: physicochemical
Method: as §2

[6] = glutathione deactivation experiment (Ellman method); format: biochemical; details: after 28 h incubation
Method: as §2
Comparing similar data of cell viability and IC50 for both iridium(III) complexes with GSH deactivation results, some correlation was observed.

[7] = target: T1, human serum albumin (HSA); experiment: HSA binding by UV-Vis spectroscopy; details: HSA 2 × 10^−5 M in Tris-HCl/NaCl buffer
Method: as §2, §3, §4

[8] = test system: normal mouse fibroblast (BALB/3T3) cell line; experiment: in vitro cytotoxicity, SRB assay, normal BALB/3T3; format: cell-based; details: for Cell viability [%] BALB/3T3: compound concentration 10 μg/mL, normal cell line
Method: as §1

[9] = test system: breast adenocarcinoma (MCF-7) cell line; experiment: in vitro cytotoxicity, SRB assay, MCF-7; format: cell-based; details: concentration of 10 μg/mL
Method: as §1

[10] = test system: normal mouse fibroblast (BALB/3T3) cell line; details: read-out: IC50 against normal BALB/3T3; cited from earlier work
[11] = test system: colorectal adenoma (LoVo) cell line; experiment: in vitro cytotoxicity, SRB assay, LoVo; format: cell-based; details: concentration of 10 μg/mL
Method: as §1

[12] = compound concentration 10 μg/mL

T1 sequence (P02768 25-609): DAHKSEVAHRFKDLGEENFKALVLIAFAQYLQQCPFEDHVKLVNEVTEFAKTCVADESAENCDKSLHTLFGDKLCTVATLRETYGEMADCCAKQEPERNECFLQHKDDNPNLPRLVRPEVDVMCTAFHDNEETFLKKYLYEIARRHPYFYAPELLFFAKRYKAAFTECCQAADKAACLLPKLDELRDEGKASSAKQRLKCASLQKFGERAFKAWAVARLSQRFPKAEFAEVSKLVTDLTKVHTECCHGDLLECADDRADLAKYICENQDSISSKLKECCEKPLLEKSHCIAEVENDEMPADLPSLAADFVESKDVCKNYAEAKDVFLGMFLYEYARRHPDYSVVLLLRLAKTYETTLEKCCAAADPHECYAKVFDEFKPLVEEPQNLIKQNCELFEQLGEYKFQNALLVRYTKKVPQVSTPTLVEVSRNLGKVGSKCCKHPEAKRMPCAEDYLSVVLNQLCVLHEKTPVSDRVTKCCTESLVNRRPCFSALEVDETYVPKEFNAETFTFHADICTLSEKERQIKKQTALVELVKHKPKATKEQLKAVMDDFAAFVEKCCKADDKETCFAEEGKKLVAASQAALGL

Molecule | IC50 against MV-4-11 ([1]; MV-4-11 cell line) [mg/L] | Cell viability [%] MV-4-11 [1, 12] [%] | decrease of melting temperature (Tm) of CT-DNA (CT-DNA) | α-helical structure of HSA under the influence of complex [3] [%] | turnover number (TON) [4] | log P [5] | concentration of unreacted GSH remaining [6] [µM] | HSA binding constant [7] | Cell viability [%] BALB/3T3 [8] [%] | other results
N.N.[Cl][Pt][Cl] [cisplatin, reference compound] | 0.27 |  |  |  |  |  |  |  |  | 
O=C(c1ccccn1)c1ccccn1 [py2CO, di-2-pyridylketone, reference compound] |  |  |  |  |  |  |  |  |  | IC50 ([1]; Homo sapiens, MV4-11, MV-4-11 cell line, read-out: IC50 against MV-4-11): 62.9 mg/L (≈ 341 µM); viability at 10 µg/mL ([1]; Homo sapiens, MV4-11, compound concentration 10 μg/mL): 98%; viability at 10 µg/mL [2]: 95.5%
NH4[IrCl4(py2CO)]·H2O [complex 3] | 35.8 ± 13.9 | 68 | ~8.5 °C | 55 | 4.8 | −0.30 ± 0.05 | 37 | 6.54 × 10^4 | 98.6 | toxic effect against normal BALB/3T3 ([8]; result in words): without a toxic effect; also recorded: without any toxic effect
[(η^5-Cp)IrCl(py2CO)]PF6 [complex 2] | 40.2 | 68 | approximately 0.5 °C | 52 | 3.3 | −1.14 ± 0.06 | 37 | 1.52 × 10^5 | 100 | inhibition of cell proliferation, MCF-7 [9]: 3.7%
[(η^6-p-cymene)RuCl(2,2′-PyBIm)]PF6 |  |  |  |  |  |  |  |  |  | pIC50 [10]: 4.36
[(η^6-p-cymene)RuCl(py2CO)]PF6 [complex 1] | 49.8 | 83 |  | 51 |  | −1.44 ± 0.11 |  | 3.22 × 10^5 |  | inhibition of cell proliferation, LoVo [11]: 1.4%
